Experimental data taken from patent US12551541B2, “Albumin bound macromolecule tri-agonist activating GLP 1/GIP/glucagon receptors and methods therefor” (AlbuNext, LLC, priority 2023, dated 2026).

Assays:
[1] = 0.16 pmol/kg per minute; cited from earlier work
[2] = monotherapy, cited from earlier work
[3] = in vivo; cited from earlier work
[4] = target: GLP-1 receptor (Homo sapiens, UniProt P43220); settings: cited from earlier work
[5] = test system: DIO (diet induced obesity) mice; assay: DIO (diet induced obesity) mice, single subcutaneous injection, NASH; assay type: in vivo; settings: single dosage of 100 nmol/kg, over 26 days
Experimental: In still further experiments to confirm that contemplated compounds presented herein are also effective as modulators for hepatic metabolism, and particularly in the treatment and even at least partial reversion of NASH (non-alcoholic […]), the inventors tested selected compounds in DIO (diet induced obesity) mice. […] The body weight of all treated animals was recorded over 26 days, and average body weight over time for 16 and 26 days are shown in FIG. 34A and FIG. 34B, respectively.
To investigate liver function and metabolism, liver weight was determined at the end of the study and results are shown in FIG. 38. […] In addition, liver function was assessed at the end of the study by testing AST (aspartate aminotransferase) and ALT (alanine transaminase).
In still further tests for hepatic metabolic modulation, the inventors also determined total cholesterol and LDL cholesterol at the end of the study, and exemplary results are shown in FIG. 41 (for total cholesterol) and FIG. 42 (for LDL cholesterol). […] As diet induced obesity is also often associated with inflammation, the inventors also measured levels of selected pro-inflammatory cytokines. Here, IL-1α and IL-6 levels were determined at the end of the study.

Chain of GLP-1 receptor (P43220 24-463, species assumed): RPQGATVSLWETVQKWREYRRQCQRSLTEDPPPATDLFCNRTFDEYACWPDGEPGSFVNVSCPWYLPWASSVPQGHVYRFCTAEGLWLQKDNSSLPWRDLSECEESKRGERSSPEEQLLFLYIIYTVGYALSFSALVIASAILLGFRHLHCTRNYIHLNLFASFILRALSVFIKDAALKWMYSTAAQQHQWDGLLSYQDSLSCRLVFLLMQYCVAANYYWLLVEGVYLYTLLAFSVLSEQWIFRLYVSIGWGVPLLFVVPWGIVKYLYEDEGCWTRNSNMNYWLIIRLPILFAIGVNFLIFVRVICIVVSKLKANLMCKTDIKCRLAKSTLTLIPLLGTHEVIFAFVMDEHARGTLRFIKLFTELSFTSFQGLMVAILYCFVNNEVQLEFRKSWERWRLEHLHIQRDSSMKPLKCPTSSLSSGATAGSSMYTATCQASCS

In the case of “GLP-1: naturally occurring hormone released by L cells in the lower intestine”, the adverse events [1] is given as “vomiting within eight minutes”.
For albiglutide, the “decrease in HbA1c from baseline” value ([2]; 30 mg weekly dose, week 52) is given as −0.7%, the “change from baseline of HbA1c” value ([2]; 50 mg weekly dose) is given as −0.9% and the half-life [3] is given as 6 to 8 days. For the same substance, the GLP-1 receptor affinity [4] was 20 nM.
With semaglutide [reference compound] the body weight [5] was “effective in reduction of body weight”.
